According to patent publication US6448228B1, “Dipeptide compounds having a high fungicidal activity and their agronomic use” (Isagro Ricerca S.r.l., priority 1998, dated 2002):
Like-named read-outs stand apart in the source and are kept apart here.

Test system: Plasmopara viticola
Assay: Fungicidal effectiveness against Peronospora (Plasmopara viticola) in preventive leaf application on vines
Format: in vivo
Conditions: 168 h, read-out: Effectiveness expressed as leaf diffusion control % of the disease with respect to a non-treated reference
Description: Determination of the Fungicidal Effectiveness Against Peronospora (Plasmapara viticola) of Compounds Having Formula (I) and (II) in Preventive Leaf Application
Cultivar Dolcetto vine leaves, grown in vases in a conditioned environment (20±1° C.), 70% relative humidity), are treated by spraying both sides of the leaves with compounds 1-7 dispersed in a hydroacetone solution at 20% by volume of acetone.
After remaining 24 hours in a conditioned environment, the plants are sprayed on both sides of the leaf with an aqueous suspension of conidia of Plasmopara viticola (200,000 conidia per cm^3).
The plants are kept in a humidity saturated environment, at 21° C., for the incubation period of the fungus and, at the end of this period (7 days), the fungicidal activity is evaluated according to an evaluation percentage scale from 100 (healthy plant) to 0 (completely infected plant).

[1] = Dose 0.45 g/hl, preventive leaf application on Dolcetto vines, inoculation 24 hours after treatment, evaluation after 7 days, scale 100 (healthy plant) to 0 (completely infected plant)
[2] = Dose 1.8 g/hl, preventive leaf application on Dolcetto vines, inoculation 24 hours after treatment, evaluation after 7 days, scale 100 (healthy plant) to 0 (completely infected plant)
[3] = Dose 7.5 g/hl, preventive leaf application on Dolcetto vines, inoculation 24 hours after treatment, evaluation after 7 days, scale 100 (healthy plant) to 0 (completely infected plant)
[4] = Dose 30 g/hl, preventive leaf application on Dolcetto vines, inoculation 24 hours after treatment, evaluation after 7 days, scale 100 (healthy plant) to 0 (completely infected plant)

SMILES | pest or weed control at 0.45 g/hl [1] | pest or weed control at 1.8 g/hl [2] | pest or weed control at 7.5 g/hl [3] | pest or weed control at 30 g/hl [4] | pest or weed control at 0.45 g/hl | pest or weed control at 1.8 g/hl | pest or weed control at 7.5 g/hl | pest or weed control at 30 g/hl
COC(=O)CC(NC(=O)[C@@H](NC(=O)OC(C)(C)C)C(C)C)c1ccccc1 (stereo partly shown) [Reference 1, reference compound] | 0% | 20% | 90% | 100% | – | – | – | –
COC(=O)CC(NC(=O)[C@@H](NC(=O)OC(C)C)C(C)C)c1ccc(C)cc1 (stereo partly shown) [Compound 4, methyl RS-[3-(N-isopropoxycarbonyl-S-valinyl)amino]-3-(4-methylphenyl)propanoate] | 75% | 100% | 100% | 100% | – | – | – | –
CC(C)OC(=O)CC(NC(=O)[C@@H](NC(=O)OC(C)C)C(C)C)c1ccccc1 (stereo partly shown) [Reference 5, reference compound] | 0% | 15% | 75% | 96% | – | – | – | –
COC(=O)CC(NC(=O)[C@@H](NC(=O)OC(C)(C)C)C(C)C)c1ccc(Cl)cc1 (stereo partly shown) [Reference 2, reference compound] | 30% | 65% | 88% | 100% | – | – | – | –
COC(=O)CC(NC(=O)[C@@H](NC(=O)OC(C)C)C(C)C)c1nc2ccccc2s1 (mixture of isomers) [Compound 8, methyl (±)RS-[3-(N-isopropoxycarbonyl-S-valinyl)amino]-3-(benzothiazol-2-yl)propanoate] | 70% | 92% | 100% | 100% | – | – | – | –
COC(=O)CC(NC(=O)[C@@H](NC(=O)OC(C)C)C(C)C)c1ccc(Cl)cc1 (mixture of isomers) [Compound 1, methyl (±)RS-[3-(N-isopropoxy-carbonyl-S-valinyl)amino]-3-(4-chlorophenyl)propanoate] | 80% | 100% | 100% | 100% | – | – | – | –
CCc1ccc(C(CC(=O)OC)NC(=O)[C@@H](NC(=O)Oc2ccccc2)C(C)C)cc1 (stereo partly shown) [Compound 5, methyl RS-[3-(N-phenoxycarbonyl-S-valinyl)amino]-3-(4-ethylphenyl)propanoate] | – | – | – | – | 70% | 90% | 100% | 100%
COC(=O)CC(NC(=O)[C@@H](NC(=O)OC(C)C)C(C)C)c1ccc(C#N)cc1 (stereo partly shown) [Compound 7, methyl RS-[3-(N-isopropoxycarbonyl-S-valinyl)amino]-3-(4-cyanophenyl)propanoate] | 67% | 90% | – | 100% | – | – | – | –
COC(=O)C(C)(C)C(NC(=O)[C@@H](NC(=O)OC(C)C)C(C)C)c1ccccc1 (stereo partly shown) [Reference 4, reference compound] | 15% | 55% | 75% | 90% | – | – | – | –
COC(=O)C[C@@H](NC(=O)[C@@H](NC(=O)OC(C)C)C(C)C)c1ccc(Cl)cc1 (racemic) [Compound 2, methyl (±)R-[3-(N-isopropoxycarbonyl-S-valinyl)amino]-3-(4-chlorophenyl)propanoate] | 100% | 100% | 100% | 100% | – | – | – | –
COC(=O)CC(NC(=O)[C@@H](NC(=O)OC(C)C)C(C)C)c1nc2cc(Cl)ccc2s1 (mixture of isomers) [Compound 9, methyl (±)RS-[3-(N-isopropoxycarbonyl-S-valinyl)amino]-3-(5-chlorobenzothiazol-2-yl)propanoate] | 90% | 100% | 100% | 100% | – | – | – | –
COC(=O)C[C@H](NC(=O)[C@@H](NC(=O)OC(C)C)C(C)C)c1ccc(Cl)cc1 [Compound 3, methyl (−)S-[3-(N-isopropoxycarbonyl-S-valinyl)amino]-3-(4-chlorophenyl)propanoate] | 65% | 85% | 100% | 100% | – | – | – | –
COC(=O)CC(NC(=O)[C@@H](NC(=O)OC(C)C)C(C)C)c1ccccc1 (stereo partly shown) [Reference 3, reference compound] | 10% | 55% | 91% | 100% | – | – | – | –
COC(=O)CC(NC(=O)[C@@H](NC(=O)OC(C)C)C(C)C)c1ccc(OC)cc1 (stereo partly shown) [Compound 6, methyl RS-[3-(N-isopropoxycarbonyl-S-valinyl)amino]-3-(4-methoxyphenyl)propanoate] | 65% | 92% | 100% | 100% | – | – | – | –
